Test results from ChEMBL document CHEMBL3259526, “(11)C-labeling and preliminary evaluation of vortioxetine as a PET radioligand” (Bioorg Med Chem Lett, 2014).

How the values were obtained:
[1] = Drug uptake in Danish Landrace pig cortex at 124 MBq, iv after 90 mins by PET analysis; assay type: ADME, organism-based, Sus scrofa; conditions: in vivo, 1.5 h
[2] = Drug uptake in Danish Landrace pig thalamus at 124 MBq, iv after 90 mins by PET analysis; assay type: ADME, organism-based, Sus scrofa; conditions: in vivo, 1.5 h
[3] = Drug uptake in Danish Landrace pig hippocampus at 124 MBq, iv after 90 mins by PET analysis; assay type: ADME, organism-based, Sus scrofa; conditions: in vivo, 1.5 h
[4] = Drug uptake in Danish Landrace pig striatum at 124 MBq, iv after 90 mins by PET analysis; assay type: ADME, organism-based, Sus scrofa; conditions: in vivo, 1.5 h
[5] = Drug uptake in Danish Landrace pig cerebellum at 124 MBq, iv after 90 mins by PET analysis; assay type: ADME, organism-based, Sus scrofa; conditions: in vivo, 1.5 h
[6] = Drug uptake in Danish Landrace pig brain at 124 MBq, iv after 60 mins by PET analysis; assay type: ADME, organism-based, Sus scrofa; conditions: in vivo, 1 h
[7] = Plasma protein binding in pig plasma at 5 MBq after 2.5 hrs by equilibrium dialysis chamber method; assay type: ADME, cell-free, Sus scrofa; conditions: read-out: PPB (converted)

Drug uptake [1]: Active
Drug uptake [2]: Active
Drug uptake [3]: Active
Drug uptake [4]: Active
Drug uptake [5]: Active
Drug uptake [6]: Active
fraction unbound at 2.5 h, 5 MBq [7]: 0.02
Compound: Cc1ccc(Sc2ccccc2N2CCNCC2)c([11CH3])c1
